Experimental data from patent publication US8507411B2, “Neoglycorandomization and digitoxin analogs” (priority 2004, dated 2013).
Like-named read-outs stand apart in the source and are kept apart here.

Experiments:
Du145 = experiment: High-throughput calcein AM cytotoxicity assay, Du145; format: cell-based, human; conditions: Du145 cells
Excerpt: (§1) Standard errors are depicted with error bars.

MCF7 = experiment: High-throughput calcein AM cytotoxicity assay, MCF7; format: cell-based, human; conditions: MCF7 cells
Excerpt: as §1

HCT-116 = experiment: High-throughput calcein AM cytotoxicity assay, HCT-116; format: cell-based, human; conditions: HCT-116 cells
Excerpt: as §1

Hep3B = experiment: High-throughput calcein AM cytotoxicity assay, Hep3B; format: cell-based, human; conditions: Hep 3B cells
Excerpt: as §1

NCI-H460 = experiment: High-throughput calcein AM cytotoxicity assay, NCI-H460; format: cell-based, human; conditions: NCI-H460 cells
Excerpt: as §1

A549 = experiment: High-throughput calcein AM cytotoxicity assay, A549; format: cell-based, human; conditions: A549 cells
Excerpt: as §1

NCI/ADR-RES = experiment: cells; format: cell-based, human; conditions: NCI/ADR-RES cells
Excerpt: (§2) In the assay, live cells were distinguished by the presence of a ubiquitous intracellular enzymatic activity which converts the non-fluorescent cell-permeable molecule calcein AM to the intensely fluorescent molecule calcein, which is retained within live cells. The IC50 value for each library member represents at least six replicates of dose-response experiments conducted over five concentrations using two-fold dilutions. […] Standard errors are depicted with error bars. Numerical values and corresponding error values can be found in Table 4. Du145: […]; MCF7: human breast carcinoma; HCT-116: human colon carcinoma, Hep3B: human liver carcinoma; SF-268: human CNS glioblastoma; SK-OV-3: human ovary adenocarcinoma; NCI-H460: human lung carcinoma; A549: human lung adenocarcinoma; NCI/ADR-RES: human breast carcinoma; NmuMG: mouse mammary normal epithelial.
(§3) Cell Culture: All cell lines except NmuMG were maintained in RPMI 1640 medium from InVitrogen (Cat No. 11875-085) supplemented with 10% w/v fetal bovine serum (FBS) from ICN (Cat No. 2916154) and penicillin-streptomycin (PS) (100 U/mL and 100 μg/mL) from InVitrogen (Cat No. 15140-122). NmuMG cells were maintained in DMEM medium from InVitrogen (Cat No. 11965-084) supplemented with 10% w/v fetal bovine serum (FBS) from ICN (Cat No. 2916154), 10 μg/ml insulin (InVitrogen Cat No 12585-014), and penicillin-streptomycin (PS) (100 U/mL and 100 μg/mL) from InVitrogen (Cat No. 15140-122). Cells were harvested by trypsinization using 0.25% w/v trypsin and 0.1% w/v EDTA from InVitrogen (Cat No. 15-050-057) and then counted in a hemocytometer in duplicate with better than 10% agreement in field counts. Cells were plated at a cell density of 10,000-15,000 cells/well of each Corning Costar 96-well black tissue culture treated microtiter plate (Fisher Cat No. 07-200-627). Cells were grown for 1 h at 37° C., with 5% CO2 in a humidified incubator to allow cell attachment to occur before compound addition.
(§4) Library Member Handling and Preparation for Cytotoxicity Assays: Library members were stored at −20° C. under dessicating conditions before the assay. Library member stocks (100×) were prepared in Corning Costar polypropylene 96-well V-bottom polypropylene microtiter plates (Fisher Cat No. 07-200-695). Five serial 1:2 dilutions were made with anhydrous DMSO at 100× the final concentration used in the assay.
(§5) Library Member Addition: The library member-containing plates were diluted 1:10 with complete cell culture media. The 10× stocks (10 μL) were added to the attached cells using a Biomek FX liquid handler (Beckman-Coulter). Library member stocks (10 μL) were added to 90 μL of cells in each plate to insure full mixing of stocks with culture media using a Beckman FX liquid handler with 96-well head.
(§6) Determination of Cytotoxicity: Cells were incubated with the library members for 72 h before fluorescence reading. Test plates were removed from the incubator and washed 1× in sterile PBS to remove serum containing calcium esterases. Calcein AM reagent (30 μL, […]) was added and the cells were incubated for 30 min at 37° C. Plates were read for emission using a fluorescein filter (excitation 485 nm, emission 535 nm).
(§7) IC50 Calculation: For each library member, at least six dose response experiments were conducted. […] To calculate IC50, percent inhibitions were plotted as a function of log [concentration] and then fit to a four-parameter logistic model that allowed for a variable Hill slope using XLfit 4.1.
(§8) Cytotoxicity Assays. All cell lines except NmuMG were maintained in RPMI 1640 medium supplemented with 10% w/v fetal bovine serum (FBS) and penicillin-streptomycin (PS) (100 U/mL and 100 μg/mL).

SF-268 = experiment: cells; format: cell-based, human; conditions: SF-268 cells
Excerpt: as §2, §3, §4, §5, §6, §7, §8

SK-OV-3 = experiment: cells; format: cell-based, human; conditions: SK-OV-3 cells
Excerpt: as §2, §3, §4, §5, §6, §7, §8

NmuMG = experiment: cells; format: cell-based, mouse
Excerpt: as §2, §3, §4, §5, §6, §7, §8

[1] = NmuMG mouse mammary normal epithelial control line, read-out: IC50, NmuMG
[2] = NmuMG cells (mouse mammary normal epithelial control line), read-out: IC50

Row | Molecule | IC50 (Du145; read-out: IC50, Du145) [µM] | IC50 (MCF7; read-out: IC50, MCF7) [µM] | IC50 (HCT-116; read-out: IC50, HCT-116) [µM] | IC50 (Hep3B; read-out: IC50, Hep 3B) [µM] | IC50 (NCI-H460; read-out: IC50, NCI-H460) [µM] | IC50 (A549; read-out: IC50, A549) [µM] | IC50 (NCI/ADR-RES; read-out: IC50, NCI/ADR-RES) [µM] | IC50 (SF-268; read-out: IC50, SF-268) [µM] | IC50 (SK-OV-3; read-out: IC50, SK-OV-3) [µM] | IC50 (NmuMG; [1]) [µM] | IC50 (NmuMG; [2]) [µM] | IC50 (Du145; read-out: IC50) [µM] | IC50 (MCF7; read-out: IC50) [µM] | IC50 (HCT-116; read-out: IC50) [µM] | IC50 (Hep3B; read-out: IC50) [µM] | IC50 (NCI-H460; read-out: IC50) [µM] | IC50 (A549; read-out: IC50) [µM] | IC50 (NCI/ADR-RES; read-out: IC50) [µM] | IC50 (SF-268; read-out: IC50) [µM] | IC50 (SK-OV-3; read-out: IC50) [µM]
1 | CON([C@H]1CC[C@@]2(C)[C@H](CC[C@@H]3[C@@H]2CC[C@]2(C)[C@@H](C4=CC(=O)OC4)CC[C@]32O)C1)[C@H]1OC[C@H](O)[C@@H](O)[C@H]1O [14β, L-lyxoside] | 2.4 | 4.5 | 8 | 0.6 | 5 | 0.7 | 0.73 | 1.1 | 4.2 | 0.9 | – | – | – | – | – | – | – | – | – | –
2 | CON([C@H]1CC[C@@]2(C)[C@H](CC[C@@H]3[C@@H]2CC[C@]2(C)[C@@H](C4=CC(=O)OC4)CC[C@]32O)C1)[C@@H]1O[C@H](CF)[C@@H](O)[C@H](O)[C@H]1O [13β, 6-deoxy-6-fluoro-D-glucoside] | 5 | 6.2 | 4.8 | 4.6 | 1.4 | 2 | 1.1 | 4.7 | 3.4 | > 25 | – | – | – | – | – | – | – | – | – | –
3 | CON(C1CCC2(C)C(CCC3C2CCC2(C)C(C4=CC(=O)OC4)CCC32O)C1)C1OC(CO)C(O)C(O)C1O [42β, L-glucoside] | 1.3 | 0.6 | 0.9 | 0.9 | 1.3 | 0.8 | 0.55 | 1.9 | 1 | 1.2 | – | – | – | – | – | – | – | – | – | –
4 | CON(C1CCC2(C)C(CCC3C2CCC2(C)C(C4=CC(=O)OC4)CCC32O)C1)C1OC(CO)C(O)C(O)C1O [18α, D-alloside] | > 25 | > 25 | > 25 | > 25 | > 25 | > 25 | > 25 | > 25 | > 25 | > 25 | – | – | – | – | – | – | – | – | – | –
5 | CON(C1CCC2(C)C(CCC3C2CCC2(C)C(C4=CC(=O)OC4)CCC32O)C1)C1CC(C)(O)C(O)C(C)O1 [30α, L-mycaroside] | > 25 | > 25 | > 25 | > 25 | > 25 | > 25 | > 25 | > 25 | > 25 | – | > 25 | – | – | – | – | – | – | – | – | –
6 | CON(C1CCC2(C)C(CCC3C2CCC2(C)C(C4=CC(=O)OC4)CCC32O)C1)C1OC(CO)C(O)C(O)C1O [25α, D-guloside] | > 25 | > 25 | > 25 | > 25 | > 25 | > 25 | > 25 | > 25 | > 25 | – | > 25 | – | – | – | – | – | – | – | – | –
7 | CON(C1CCC2(C)C(CCC3C2CCC2(C)C(C4=CC(=O)OC4)CCC32O)C1)C1OC(C)C(O)C(O)C1O [11β, 6-deoxy-D-glucoside] | 6 | 1.9 | 2.3 | 4.4 | 1 | 1.2 | 0.95 | 2.5 | 4 | > 25 | – | – | – | – | – | – | – | – | – | –
8 | CON(C1CCC2(C)C(CCC3C2CCC2(C)C(C4=CC(=O)OC4)CCC32O)C1)C1OC(CO)C(O)C(O)C1O [42α, L-glucoside] | – | – | – | – | – | – | – | – | – | – | > 25 | > 25 | > 25 | > 25 | > 25 | > 25 | > 25 | > 25 | > 25 | > 25
9 | CON(C1CCC2(C)C(CCC3C2CCC2(C)C(C4=CC(=O)OC4)CCC32O)C1)C1OC(CO)C(O)C(O)C1O [40α, D-taloside] | – | – | – | – | – | – | – | – | – | – | > 25 | > 25 | > 25 | > 25 | > 25 | > 25 | > 25 | > 25 | > 25 | > 25
10 | CON(C1CCC2(C)C(CCC3C2CCC2(C)C(C4=CC(=O)OC4)CCC32O)C1)C1OC(CO)C(O)C(O)C1NC(C)=O [34β, N-acetyl-D-galactosaminoside] | > 25 | > 25 | > 25 | 17 | 20 | > 25 | 6.4 | > 25 | 17 | > 25 | – | – | – | – | – | – | – | – | – | –
11 | CON(C1CCC2(C)C(CCC3C2CCC2(C)C(C4=CC(=O)OC4)CCC32O)C1)C1OC(C(=O)O)C(O)C(O)C1O [38β, D-galacturonoside] | 1.9 | 5 | 2.7 | 2.1 | 1.4 | 2.2 | 1.6 | 2.2 | 3.1 | > 25 | – | – | – | – | – | – | – | – | – | –
12 | D-arabinoside [33α] | – | – | – | – | – | – | – | – | – | – | > 25 | > 25 | > 25 | > 25 | > 25 | > 25 | > 25 | > 25 | > 25 | > 25
13 | CON([C@H]1CC[C@@]2(C)[C@H](CC[C@@H]3[C@@H]2CC[C@]2(C)[C@@H](C4=CC(=O)OC4)CC[C@]32O)C1)[C@@H]1O[C@H](CO)[C@H](O)[C@@H](O)[C@H]1O [25β, D-guloside] | 5.7 | 0.9 | 2.1 | 1.9 | 2.6 | 2 | 1.1 | 2 | 2.2 | 1.8 | – | – | – | – | – | – | – | – | – | –
14 | CON(C1CCC2(C)C(CCC3C2CCC2(C)C(C4=CC(=O)OC4)CCC32O)C1)C1OC(CO)C(O)C(O)C1NC(C)=O [34α, N-acetyl-D-galactosaminoside] | – | – | – | – | – | – | – | – | – | – | > 25 | > 25 | > 25 | > 25 | > 25 | > 25 | > 25 | > 25 | > 25 | > 25
15 | CON(C1CCC2(C)C(CCC3C2CCC2(C)C(C4=CC(=O)OC4)CCC32O)C1)C1OC(CO)C(O)C(O)C1O [39α, L-taloside] | – | – | – | – | – | – | – | – | – | – | > 25 | > 25 | > 25 | > 25 | > 25 | > 25 | > 25 | > 25 | > 25 | > 25
16 | CON([C@H]1CC[C@@]2(C)[C@H](CC[C@@H]3[C@@H]2CC[C@]2(C)[C@@H](C4=CC(=O)OC4)CC[C@]32O)C1)[C@H]1O[C@@H](CO)[C@H](O)[C@@H](O)[C@H]1O [26β, L-mannoside] | 2 | 3 | 4.2 | 2 | 1.6 | 1.7 | 4.8 | 2.1 | 3.1 | 1.3 | – | – | – | – | – | – | – | – | – | –
